Each structure is given as a SMILES string.

Series [1] can be described thus: Aqueous solubility of the quinolone and its crystal forms. The class given is physicochemical. The settings on record: for solubility of crystal form: depending upon the crystal form. The source says:
The compounds disclosed in U.S. Pat. No. 5,563,155, ('155) are incorporated by reference here to fully disclose and enable this invention. The following compounds of the '155 patent are pointed out and particularly incorporated here. […] More particularly disclosed by incorporation by reference are those compounds of '155, in claim 1, where R2 is H and where R or R' is H. The quinolone where R2 is H and where R or R' is H can be combined with Mg2+ ions to produce a soluble complex having reduced injection site irritation. More preferred are the compounds of '155, in claim 1, where R2 is H and where R or R' is H, and where R3 is H and X is C--O--CH3. The esters of these compounds are also disclosed herein, the carboxy esters of 1-8 carbon groups are disclosed here, including all isomeric combinations (CH3, C2 H5, C3 H7, C4 H9, C5 H11, C6 H13, C7 H15, C8 H17 -- both straight and branched chains) and especially preferred are the carboxy esters of 1-4 carbon groups such as in U.S. Pat. No. 5,563,155, claim 1, where R2 is an alkyl of 1-4 carbon atoms or a cation. Even more preferred are the compounds of claim 2, most particularly the compound of claim 8 or 3R,1S-1-cyclopropyl-7-(3-(1-(methylamino)ethyl)-1-pyrrolidinyl)-6-fluoro-1,4-dihydro-8-methoxy-4-oxo-3-quinolinecarboxylic acid. […] Also, particular attention is directed to the descriptions in the specification of the '155 patent that correspond or are relevant to those claims and compounds described here.
The quinolones mentioned above can exist in different forms, the different forms having different solubilities. […] Even though it is the less soluble crystal form, Form III is very suitable as the quinolone that may be combined with Mg2+ in this invention. See, WO96/16055, incorporated by reference.
The compounds that may be made into solutions of this type are those compounds disclosed in Formula 1 and in U.S. Pat. No. 5,563,155, incorporated herein by reference and particularly 3R,1S-1-cyclopropyl-7-(3-(1-(methylamino)ethyl)-1-pyrrolidinyl)-6-fluoro-1,4-dihydro-8-methoxy-4-oxo-3-quinolinecarboxylic acid. […]

A short description of series [2]: Serum depletion profile of 14C-quinolone with and without magnesium. The class given is in vivo, Holstein calves. The settings on record: single subcutaneous, approximately 10 mg/kg. As for the experimental part:
(§1) Experiment 7. The determination of preliminary residue depletion profile in calves following subcutaneous administration of 14C-quinolone with and without magnesium.
(§2) Formulations: Radiolabeled quinolone was combined with unlabeled quinolone to yield solutions containing quinolone at 50 mg/mL with a specific activity of 2.25 uCi/mg. Solution 1: 4.92 g of unlabeled quinolone and 11.26 mCi 14C-quinolone were dissolved in 0.16 M HCl, the solution was titrated to pH 4-5 with 1 M NaOH and diluted with deionized water to a final volume of 100 mL. Solution 2: 4.92 g of unlabeled quinolone and 11.26 mCi 14C-quinolone were dissolved in 0.24 M MgCl2 --6H2 O and diluted to 100 mL with deionized water.
(§3) Treatment Groups: Ten (male and female) Holstein calves approximately 50-85 kg were used. Each animal was injected with a single subcutaneous injection (approximately 0.2 mL dose solution/kg body weight). The dose level was approximately 10 mg/kg (22.5 uCi/kg) body weight. Whole blood samples (approximately 50 mL) were collected from each animal at 0.5, 1, 1.5, 2, 2.5, 3, 6, 12, 24, and 48 h after dosing or until euthanasia. Following euthanasia, fat, muscle, lung, kidney, liver and injection site tissue samples (approximately 500 g) were collected. Blood and tissue samples were combusted and drug residue determined by liquid scintillation counting.

Series [3] in a line: Total 14C-quinolone tissue residue depletion. The class given is in vivo, Holstein calves. Particulars: for Total 14C-quinolone residues at injection site / Total 14C-quinolone residues in fat / Total 14C-quinolone residues in kidneys / Total 14C-quinolone residues in liver / Total 14C-quinolone residues in lungs / Total 14C-quinolone residues in muscle: 10 mg/kg. On the procedure: as §1, §2, §3

A short description of series [4]: Injection site reaction after subcutaneous injection in animals (general statement). The series is classed as in vivo. Particulars: without Mg2+. The source says: Unfortunately these compounds also produce a severe adverse reaction at the injection site when injected subcutaneously in animals.

On to `CN[C@@H](C)[C@@H]1CCN(c2c(F)cc3c(=O)c(C(=O)O)cn(C4CC4)c3c2OC)C1` [Form 1, 3R,1S-1-cyclopropyl-7-(3-(1-(methylamino)ethyl)-1-pyrrolidinyl)-6-fluoro-1,4-dihydro-8-methoxy-4-oxo-3-quinolinecarboxylic acid], for which the “solubility of crystal form” value in series [1] is listed as “about 10.8 mg/ml”.
Regarding `CN[C@@H](C)[C@@H]1CCN(c2c(F)cc3c(=O)c(C(=O)O)cn(C4CC4)c3c2OC)C1` [Form 3, 3R,1S-1-cyclopropyl-7-(3-(1-(methylamino)ethyl)-1-pyrrolidinyl)-6-fluoro-1,4-dihydro-8-methoxy-4-oxo-3-quinolinecarboxylic acid], the “solubility of crystal form” value in series [1] is recorded as “about 2.2 mg/ml”.
Take `CN[C@@H](C)[C@@H]1CCN(c2c(F)cc3c(=O)c(C(=O)O)cn(C4CC4)c3c2OC)C1` [QFB, [S-(R*,S*)]-1-Cyclopropyl-6-fluoro-1,4-dihydro-8-methoxy-7-[3-[1-(methylamino)ethyl]-1-pyrrolidinyl]-4-oxo-3-quinolinecarboxylic acid]: the estimated intrinsic solubility result in series [1] (25° C.) is recorded as “about 2.2 mg/ml”. Further, in series [2] (1 hour), the “serum concentration at 1 hour” value amounted to 30.4 µg/mL. In series [2] (48 hours), the “serum concentration after 48 hours” value stood at 1.0 µg/mL. For the same molecule, in series [3] (3 hr), the “Total 14C-quinolone residues at injection site” value is listed as 10,482 μg/g, the “Total 14C-quinolone residues in fat” value amounted to 45.4 µg/g, the “Total 14C-quinolone residues in kidneys” value came to 353.2 µg/g and the “Total 14C-quinolone residues in liver” value came out at 215.5 µg/g. Besides, in series [3] (3 hr), the “Total 14C-quinolone residues in lungs” value was found to be 146.8 µg/g and the “Total 14C-quinolone residues in muscle” value came out at 50.1 µg/g. Further, in series [3] (6 hr), the “Total 14C-quinolone residues at injection site” value was 12,382 μg/g, the “Total 14C-quinolone residues in fat” value was found to be 16.8 µg/g, the “Total 14C-quinolone residues in kidneys” value came to 234.1 µg/g and the “Total 14C-quinolone residues in liver” value was determined as 147.2 µg/g. In addition, in series [3] (6 hr), the “Total 14C-quinolone residues in lungs” value is 96.6 µg/g and the “Total 14C-quinolone residues in muscle” value came out at 38.4 µg/g. Also, in series [3] (12 hr), the “Total 14C-quinolone residues at injection site” value is listed as 1,737 μg/g, the “Total 14C-quinolone residues in fat” value amounted to 7.8 µg/g, the “Total 14C-quinolone residues in kidneys” value was 121.3 µg/g and the “Total 14C-quinolone residues in liver” value worked out at 110.9 µg/g. Also, in series [3] (12 hr), the “Total 14C-quinolone residues in lungs” value was found to be 53.1 µg/g and the “Total 14C-quinolone residues in muscle” value is 24.3 µg/g. In addition, in series [3] (24 hr), the “Total 14C-quinolone residues at injection site” value was found to be 932.5 µg/g, the “Total 14C-quinolone residues in fat” value came out at 13.9 µg/g, the “Total 14C-quinolone residues in kidneys” value was 90.3 µg/g and the “Total 14C-quinolone residues in liver” value stood at 59.5 µg/g. Further, in series [3] (24 hr), the “Total 14C-quinolone residues in lungs” value turned out to be 27.6 µg/g and the “Total 14C-quinolone residues in muscle” value was 9.4 µg/g. In addition, in series [3] (48 hr), the “Total 14C-quinolone residues at injection site” value worked out at 225.7 µg/g, the “Total 14C-quinolone residues in fat” value was 1.7 µg/g, the “Total 14C-quinolone residues in kidneys” value was 15.0 µg/g and the “Total 14C-quinolone residues in liver” value worked out at 13.4 µg/g. For the same molecule, in series [3] (48 hr), the “Total 14C-quinolone residues in lungs” value was 4.8 µg/g and the “Total 14C-quinolone residues in muscle” value worked out at 1.4 µg/g. Also, the “injection site concentration of QFB” value in series [3] (single subcutaneous, approximately 10 mg/kg) was 10,480 ug/g. Also, the “adverse reaction at injection site” value in series [4] is “dramatic swelling, discoloration, internal and external lesions and even necrosis”.

The values above are taken from patent US6288080A, “Magnesium quinolone antibiotics” (priority 1998, dated 2001).
